The target of one assay is T1, human LXRalpha LBD (Homo sapiens, UniProt Q13133, A196R).
T1 construct: from amino acids 155 of hLXRalpha to 447; made in house; host or cells: SF9 insect cells (baculovirus) for LXRalpha LBD; E. coli BL21 for Tif2 fragment
T1 sequence (Q13133 155-447 A196R): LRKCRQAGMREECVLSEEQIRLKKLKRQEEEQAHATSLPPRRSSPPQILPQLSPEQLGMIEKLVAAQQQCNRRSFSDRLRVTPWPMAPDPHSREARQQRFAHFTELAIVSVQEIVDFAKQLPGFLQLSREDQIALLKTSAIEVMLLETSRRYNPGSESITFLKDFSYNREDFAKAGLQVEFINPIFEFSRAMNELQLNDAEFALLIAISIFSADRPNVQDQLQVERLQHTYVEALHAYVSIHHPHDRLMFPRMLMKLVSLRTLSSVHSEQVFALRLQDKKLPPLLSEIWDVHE
T1 sequence (Q15596 548-878 partner limits assumed): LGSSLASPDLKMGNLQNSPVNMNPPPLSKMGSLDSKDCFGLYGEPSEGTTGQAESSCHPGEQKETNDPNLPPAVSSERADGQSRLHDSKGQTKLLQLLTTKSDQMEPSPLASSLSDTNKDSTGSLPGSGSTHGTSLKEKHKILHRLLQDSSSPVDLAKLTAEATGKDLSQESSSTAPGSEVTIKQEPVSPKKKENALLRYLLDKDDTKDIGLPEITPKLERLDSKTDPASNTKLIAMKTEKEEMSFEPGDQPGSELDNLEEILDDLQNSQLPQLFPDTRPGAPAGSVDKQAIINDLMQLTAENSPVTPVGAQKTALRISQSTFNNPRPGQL
Nature of the assay: In vitro screening for LXR binding to coactivator Tif2 (LANCE TR-FRET). The assay is classed as biochemical. The text has this:
For screening purposes a GST and 6× His fusion of the LBD (from amino acids 155 of hLXRalpha to 447) of human LXRalpha was constructed by first cloning a Gateway cassette (Invitrogen) in frame into the Sma I site of the pAGGHLT Polylinker (Pharmingen). Then a PCR fragment specifically amplified from human liver cDNA was cloned into the resulting pACGHLT-GW following the manufacturers instructions for Gateway cloning (Invitrogen) to yield pACGHLT-GW-hLXRalphaLBD.
100% sequence integrity of all recombinant products was verified by sequencing. Recombinant Baculovirus was constructed from pACGHLT-GW-hLXRalphaLBD using the Pharmingen Baculovirus Expression vector system according to instructions of the manufacturer. Monolayer cultures of SF9 cells were infected by the virus as recommended by Pharmingen or 200 ml cultures of 1×10^6 cells/ml grown in 2 liter Erlenmeyer flasks on an orbital shaker at 30 rpm were infected by 10 ml of same virus stock. In both cases cells were harvested 3 days after infection. All cell growth was performed in Gibco SF900 II with Glutamine (Invitrogen) medium without serum supplementation at 28° C. Since SF9 cells contain significant amounts of endogenous 30 GST, purification was performed via His and not via GST affinity chromatography.
To this end instructions of Pharmingen for purification of recombinant His tagged proteins from SF9 cells were followed with the following modifications: All detergents were omitted from the buffers and cells were lysed on ice by 5 subsequent sonication pulses using a sonicator needle at maximum power.
All eluates were dialyzed against 20 mM Tris/HCl pH 6.8, 300 mM KCl; 5 mM MgCl2;1 mM DTT; 0.2 mM PMSF; 10% Glycerol. A typical dialyzed eluate fraction contained the fusion protein at a purity of more than 80%. Total protein concentration was 0.1-0.3 mg/ml.
For E. coli expression of a NR coactivator, pDest17-hTif2BD expressing an NR interaction domain from amino acids 548-878 of human Tif2 (Acc. No: XM011633 Ref Seq) tagged by 6 N-terminal His residues was constructed. Therefore, a PCR fragment specifically amplified from human liver cDNA was subcloned into pDest 17 (Invitrogen) following the manufacturers instructions for Gateway cloning (Invitrogen). Primers used for Amplification were: […]
For E. coli expression plasmid DNA was transformed into chemically competent E. coli BL21 (Invitrogen, USA) and cells were grown to an OD600 of 0.4-0.7 before expression was induced by addition of 0.5 mM IPTG according instructions of the manufacturer (Invitrogen). After induction for 8 hours at 30° C. cells were harvested by centrifugation for 10 minutes at 5000×g. Fusion proteins were affinity purified using Ni—NTA Agarose (QIAGEN) according to the instructions of the manufacturer.
Recombinant Tif2 construct was dialyzed against 20 mM Tris/HCL pH 7.9; 60 mM KCl; 5 mM MgCl2; 1 mM DTT, 0.2 mM PMSF; 10% glycerol. A typical dialyzed eluate fraction contained the fusion protein at a purity of more than 80%. Total protein concentration was 0.1-0.3 mg/ml.
The TIF2 fragment was subsequently biotinylated by addition of 5-40 ul/ml Tif2 fraction of a Biotinamidocaproate N-Hydroxysuccinimide-ester (Sigma) solution (20 mg/ml in DMSO). Overhead rotating samples were incubated for 2 hours at room temperature. Unincorporated label was then separated using G25 Gel filtration chromatography (Pharmacia Biotech, Sweden). Protein containing fractions from the column were pooled and tested for activity in the assay as described below.
For screening of compound libraries as provided for by the methods shown below in the examples for substances which influence the LXR/Tif 2 interaction, the PerkinElmer LANCE technology is applied. This method relies on the binding dependent energy transfer from a donor to an acceptor fluorophore attached to the binding partners of interest. […]

The test system of a further assay is THP-1 macrophages. The experiment in a line: Cholesterol efflux from differentiated THP-1 macrophages. The class given is cell-based. To be noted: ApoA1, 10 uM, 24 h. Here is the method: Methods: Cultures of the monocyte-macrophage cell line and the hepatocytes HepG2 are obtained from the American Type tissue Culture Collection, Rockville, Md. and were grown in RPMI 1640 medium supplemented with 10% fetal bovine serum, 10 mM HEPES, 2 mM pyruvate, 50 uM (3-Mercaptoethanol (THP-1) and Minimum essential medium (Eagle) with 2 mM L-glutamine and Earle's BSS supplemented with 10% fetal bovine serum, 2 mM glutamin, 0.1 mM non-essential amino acids, 1 mM sodium pyruvate (HepG2), respectively, at 37° C. in 5% CO2. THP-1 cells are differentiated into macrophages by addition of 100 nM Phorbol 12-Myristate 13-Acetate (PMA; Sigma P8139) and PMA included in the medium of all subsequent experiments to maintain differentiation. For cholesterol efflux measurements and triglyceride analysis cells are seeded in 6 well plates at 1.8×10^6 cells (THP-1) and 1×10^6 cells (HepG2) per well, respectively. CHOLESTEROL EFFLUX THP-1 cells are seeded in 6 well plates at 1×10^6 cells per well in RPMI 1640 medium containing 10% FCS and 100 nM TPA for 72 h. After washing with PBS cells are incubated 24 h with fresh in RPMI 1640 medium containing 10% FCS and 100 nM TPA. […] Medium is collected, centrifuged to remove cell debris and assayed for cholesterol using a commercial fluorometric kit (Molecular Probes A-12216). The remaining cellular proteins are lysed with 0.3 NNaOH and protein content measured with the Biorad Bradford reagent. THP-1 (1×10^6 cells per dish) cells were seeded in 6 well dishes in 3 ml modified RPMI 1640 medium (ATTC, Cat. […] After incubation for 24 hours, total cholesterol was determined from cell supernatant in each of the wells using an enzymatic assay with fluorescence read-out for the determination of cholesterol (Amplex Red Cholesterol Assay Kit (A-12213). The fluorescence readout per mg of total protein content as determined from cells that were present in the respective well are shown in FIGS. 9 or 11 as an example.

The next assay concerns HepG2 liver cells. Nature of the assay: Triglyceride assay in HepG2 cells. The assay is classed as cell-based. Conditions: 24 h, 25 pM. Here is the method:
Methods: Cultures of the monocyte-macrophage cell line and the hepatocytes HepG2 are obtained from the American Type tissue Culture Collection, Rockville, Md. and were grown in RPMI 1640 medium supplemented with 10% fetal bovine serum, 10 mM HEPES, 2 mM pyruvate, 50 uM (3-Mercaptoethanol (THP-1) and Minimum essential medium (Eagle) with 2 mM L-glutamine and Earle's BSS supplemented with 10% fetal bovine serum, 2 mM glutamin, 0.1 mM non-essential amino acids, 1 mM sodium pyruvate (HepG2), respectively, at 37° C. in 5% CO2.
For cholesterol efflux measurements and triglyceride analysis cells are seeded in 6 well plates at 1.8×10^6 cells (THP-1) and 1×10^6 cells (HepG2) per well, respectively.
TRIGLYCERIDE ASSAY HepG2 cells are seeded in poly-L-Lysine coated 6 well plates at 1×10^6 cells per well in EMEM medium containing 10% FCS until they were appr. 60% confluent. Before treatment with LXR compounds growth medium is changed to medium containing 10% charcoal/dextran-stripped FCS for 12 h. Treatment is done for 24 h in medium containing 10% charcoal/dextran-stripped FCS. Cells are washed twice with ice-cold PBS/0.2% BSA and twice with cold PBS and all liquid carefully removed. Triglyceride are extracted with 1.5 ml hexane/isopropanol=3: 2 per well with gentle shaking for 2-3 h at RT according to Pan et al. (2002) JBC277, 4413-4421 and Goti et al. (1998) Biochem J, 332, 57-65. The extraction solution is collected, dried under vacuum and redissolved in isopropanol/1.5% triton. The remaining cellular proteins are lysed with 0.3 N NaOH and protein content measured with the Biorad Bradford reagent.
Triglyceride levels are measured as esterified glycerol using a commercial enzymatic colorimetric kit (Sigma 343-25P). In a preliminary assay it is checked by omitting the lipase enzyme that contribution of free glycerol is negligible.

The target of another assay is T2, Gal4DBD-LXRa (Homo sapiens, UniProt Q13133).
T2 construct: expressed in transfected cells; host or cells: CHO
T2 sequence (Q13133 209-447 limits assumed): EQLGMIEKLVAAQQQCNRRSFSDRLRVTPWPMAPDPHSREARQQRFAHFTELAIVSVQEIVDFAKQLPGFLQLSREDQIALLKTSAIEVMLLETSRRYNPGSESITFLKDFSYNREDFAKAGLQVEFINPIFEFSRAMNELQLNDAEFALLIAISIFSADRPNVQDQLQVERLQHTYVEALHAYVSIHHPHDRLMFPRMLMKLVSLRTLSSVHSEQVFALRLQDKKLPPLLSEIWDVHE
Nature of the assay: pFR-luc reporter transactivation in CHO cells, Gal4DBD-LXRa. The class given is cell-based. To be noted: 16 h, 0.032 to 50 uM. Here is the method:
(§1) CHO cells (1×10^5 cells 96 well plate) were co-transfected (Lipofectamine 2000 GIBCO) with pFR-luc (Stratagene) as a reporter gene construct and pCMV-AD derivatives containing the LXRa or LXRb ligand binding domains, which were cloned via the gateway system (GIBCO) described in Example 1, in order to express Gal4DBD-LXRa or Gal4DBD-LXRb fusion proteins.
(§2) Cells were grown in DMEM containing 10% FCS at 37° C. in 5% humidified CO2 for 16 h in presence of 0.05% DMSO vehicle or 0.032 to 50 uM LN0000006500 in vehicle (as indicated in FIG. 9). Luciferase activity was determined from aliquots of extracts prepared from cells following standard luciferase assay kits and protocols from Promega.

For a further assay, the target named is T3, Gal4DBD-LXRb (Homo sapiens, UniProt P55055).
T3 construct: expressed in transfected cells; host or cells: CHO
T3 sequence (P55055 222-460 limits assumed): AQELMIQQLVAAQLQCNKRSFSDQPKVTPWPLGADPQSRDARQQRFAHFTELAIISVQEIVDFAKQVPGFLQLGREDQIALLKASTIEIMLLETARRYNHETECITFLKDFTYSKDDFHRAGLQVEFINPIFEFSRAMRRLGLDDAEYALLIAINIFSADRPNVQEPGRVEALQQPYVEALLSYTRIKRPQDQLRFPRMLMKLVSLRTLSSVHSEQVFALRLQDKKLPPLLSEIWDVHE
The experiment in a line: pFR-luc reporter transactivation in CHO cells, Gal4DBD-LXRb. The assay is classed as cell-based. Conditions: 16 h, 0.032 to 50 uM. Here is the method: as §1, §2

With `C=CCn1c(N2CC3(C)CC2CC(C)(C)C3)nc2ccccc2c1=O` (stereo not drawn) [formula (4)], the EC50 at human LXRalpha LBD (FRET assay, read-out: EC50 at LXR (half-maximal effective concentration)) came out at 500 nM.

Consider `CC(C)n1c(N2CC3(C)CC2CC(C)(C)C3)nc2ccc(Br)cc2c1=O` (stereo not drawn) [formula (6)], for which, at human LXRalpha LBD, the “active as agonist / partial agonist of the LXR human nuclear receptor” value is “active as agonist”.

As for `O=S(=O)(c1ccccc1)N(CC(F)(F)F)c1ccc(C(O)(C(F)(F)F)C(F)(F)F)cc1` [T0901317, reference compound], in the assay on THP-1 macrophages, the cholesterol export entry was “marked increase”. Also, the triglyceride mass entry in the assay on HepG2 liver cells was “marked increase”. The “transactivation of the pFR-luc reporter gene via Gal4 LBD-fusion construct derived from LXRa” value at Gal4DBD-LXRa is listed as “can selectively enhance transcription”. Besides, the “transactivation of the pFR-luc reporter gene via Gal4 LBD-fusion construct derived from LXRb” value at Gal4DBD-LXRb was “can selectively enhance transcription”.

(Values after US20050261319A1, “Novel 2-amino-4-quinazolinones and 2-amino-4-oxoquinazolones as LXR nuclear receptor binding compounds with partial agonistic properties” (priority 2002, published 2005).)
